Test results reported in US20230167127A1, “COMPOUNDS AND THEIR USE IN THE TREATMENT OF BACTERIAL INFECTION” (Hoffmann-La Roche Inc., priority 2020, published 2023).

What follows are compounds tested on Escherichia coli ATCC 25922 (assay: 50% growth inhibitory concentration (IC50) determination, Iso-Sensitest broth dilution). Details: Escherichia coli, ATCC25922, 16 h, strain Escherichia coli ATCC 25922; 10-point broth dilution, optical density at 600 nm over 16 h; read-out: Escherichia coli growth inhibition IC50.
Assay type: cell-based
Method in brief: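 10-point twofold Iso-Sensitest broth dilution (e.g. 50 to 0.097 μM final) with DMSO stocks, incubated at 35±2° C. Growth followed by OD 600 nm every 20 min over 16 h; IC50 derived from growth inhibition during logarithmic phase.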

Compound | IC50
Cc1nc2c(c3c1CC(CNCCC1CN(c4cnc5c(n4)NC(=O)CO5)C(=O)O1)C3)CCN2C (stereo not shown) [Example 424, 6-[5-[2-[(5,8-Dimethyl-5,7-diazatricyclo[7.3.0.0^2,6]dodeca-1,6,8-trien-11-yl)methylamino]ethyl]-2-oxo-1,3-oxazolidin-3-yl]-4H-pyrazino[2,3-b][1,4]oxazin-3-one] | 0.227 µM
Cc1c(OCC(=O)NC(C)C)nc(C#N)c2c1CC(CNCCC1CN(c3ccc4c(n3)NC(=O)CO4)C(=O)O1)C2 (stereo not shown) [Example 222, 2-((1-cyano-4-methyl-6-(((2-(2-oxo-3-(3-oxo-3,4-dihydro-2H-pyrido[3,2-b][1,4]oxazin-6-yl)oxazolidin-5-yl)ethyl)amino)methyl)-6,7-dihydro-5H-cyclopenta[c]pyridin-3-yl)oxy)-N-isopropylacetamide] | 0.717 µM
N#Cc1nccc2c1CC(CN[C@H]1C[C@@]3(CN(c4ccc5c(n4)NC(=O)CO5)C(=O)O3)C1)C2 (stereo partly drawn) [Example 104, 6-[[[2,4-trans-6-oxo-7-(3-oxo-4H-pyrido[3,2-b][1,4]oxazin-6-yl)-5-oxa-7-azaspiro[3.4]octan-2-yl]amino]methyl]-6.7-dihydro-5H-cyclopenta[c]pyridine-1-carbonitrile] | 0.0994 µM
Cc1nc(OCCCN)c(C)c2c1CC(CNCCC1CN(c3ccc4c(n3)NC(=O)CO4)C(=O)O1)C2 (stereo not shown) [Example 176, 6-[5-[2-[[3-(3-aminopropoxy)-1,4-dimethyl-6,7-dihydro-5H-cyclopenta[c]pyridin-6-yl]methylamino]ethyl]-2-oxo-1,3-oxazolidin-3-yl]-4H-pyrido[3,2-b][1,4]oxazin-3-one] | 0.483 µM
NC1c2cccc(Cl)c2CC1CNCCC1CN(c2ncc3c(n2)NC(=O)CO3)C(=O)O1 (racemic) [Example 290, 2-[5-[2-[(rac-1,2-trans-1-amino-4-chloro-2,3-dihydro-1H-inden-2-yl)methylamino]ethyl]-2-oxo-1,3-oxazolidin-3-yl]-8H-pyrimido[5,4-b][1,4]oxazin-7-one] | 0.261 µM
O=C1COc2ccc(N3CC(CNCCC4Cc5cccc(Cl)c5C4)OC3=O)nc2N1 (stereo not shown) [Example 26, 6-[5-[ [2-(4-chloro-2,3-dihydro-1H-inden-2-yl)ethylamino]methyl]-2-oxo-1,3-oxazolidin-3-yl]-4H-pyrido[3,2-b][1,4]oxazin-3-one; formic acid] | < 0.0977 µM
NC1c2cccc(Cl)c2CC1NCCCC1CN(c2ccc3c(n2)NC(=O)CO3)C(=O)O1 (racemic) [Example 244, 6-[2-oxo-5-[3-[[rac-1,2-trans-1-amino-4-chloro-2,3-dihydro-1H-inden-2-yl]amino]propyl]-1,3-oxazolidin-3-yl]-4H-pyrido[3,2-b][1,4]oxazin-3-one] | < 0.0977 µM
CC(N)COc1cc2c(c(Cl)n1)CC(CNCCC1CN(c3cnc4c(n3)NC(=O)CO4)C(=O)O1)C2 (stereo not shown) [Example 145, 6-[5-[2-[[3-(2-aminopropoxy)-1-chloro-6,7-dihydro-5H-cyclopenta[c]pyridin-6-yl]methylamino]ethyl]-2-oxo-oxazolidin-3-yl]-4H-pyrazino[2,3-b][1,4]oxazin-3-one; formic acid] | 0.191 µM
N#Cc1cc(OC2CCNC2)cc2c1CC(CNCCC1CN(c3ccc4c(n3)NC(=O)CO4)C(=O)O1)C2 (stereo not shown) [Example 254, 2-[[2-[2-Oxo-3-(3-oxo-4H-pyrido[3,2-b][1,4]oxazin-6-yl)-1,3-oxazolidin-5-yl]ethylamino]methyl]-6-pyrrolidin-3-yloxy-2,3-dihydro-1H-indene-4-carbonitrile; formic acid] | 0.188 µM
COc1cnc(Cl)c2c1CC(CNCCC1CN(c3cnc4c(n3)NC(=O)CO4)C(=O)O1)C2 (stereo not shown) [Example 58, 6-[5-[2-[(1-chloro-4-methoxy-6,7-dihydro-5H-cyclopenta[c]pyridin-6-yl)methylamino]ethyl]-2-oxo-1,3-oxazolidin-3-yl]-4H-pyrazino[2,3-b][1,4]oxazin-3-one; formic acid] | 0.19 µM

The next lines start with the values.

IC50 | Compound
< 0.0977 µM | NC1(CCNCC2CN(c3ccc4c(n3)NC(=O)CO4)C(=O)O2)Cc2cccc(Cl)c2C1 (stereo not shown) [Example 142, 6-[5-[[2-(2-amino-4-chloro-1,3-dihydroinden-2-yl)ethylamino]methyl]-2-oxo-1,3-oxazolidin-3-yl]-4H-pyrido[3,2-b][1,4]oxazin-3-one; formic acid]
< 0.0977 µM | Cc1ncc(C#N)c2c1CC(CNCC[C@@H]1CN(c3cnc4c(n3)NC(=O)CO4)C(=O)O1)C2 (stereo partly drawn) [Example 365, 1-methyl-6-[[2-[(5R)-2-oxo-3-(3-oxo-4H-pyrazino[2,3-b][1,4]oxazin-6-yl)-1,3-oxazolidin-5-yl]ethylamino]methyl]-6,7-dihydro-5H-cyclopenta[c]pyridine-4-carbonitrile]
< 0.0977 µM | CCn1cc(C(=O)O)c(=O)c2cc(F)c3c(c21)CC(CNCCC1CN(c2ccc4c(n2)NC(=O)CO4)C(=O)O1)C3 (stereo not shown) [Example 239, 1-Ethyl-6-fluoro-4-oxo-8-[[2-[2-oxo-3-(3-oxo-4H-pyrido[3,2-b][1,4]oxazin-6-yl)-1,3-oxazolidin-5-yl]ethylamino]methyl]-8,9-dihydro-7H-cyclopenta[h]quinoline-3-carboxylic acid]
< 0.0977 µM | NC1(COc2cc(F)c3c(c2)CC(CN2CCC4(CC2)CN(c2cnc5c(n2)NC(=O)CO5)C(=O)O4)C3)CC1 (stereo not shown) [Example 257, 6-[8-[[6-[(1-Aminocyclopropyl)methoxy]-4-fluoro-2,3-dihydro-1H-inden-2-yl]methyl]-2-oxo-1-oxa-3,8-diazaspiro[4.5]decan-3-yl]-4H-pyrazino[2,3-b][1,4]oxazin-3-one; formic acid]
< 0.0977 µM | Cc1nc(C)c2c(c1C)CC(CNCCC1CN(c3cnc4c(n3)NC(=O)CO4)C(=O)O1)C2 (stereo not shown) [Example 269, 6-[2-Oxo-5-[2-[(1,3,4-trimethyl-6,7-dihydro-5H-cyclopenta[c]pyridin-6-yl)methylamino]ethyl]-1,3-oxazolidin-3-yl]-4H-pyrazino[2,3-b][1,4]oxazin-3-one]
< 0.0977 µM | Cc1nccc2c1CC(CNCCC1CN(c3cnc4c(n3)NC(=O)CO4)C(=O)O1)C2 (stereo not shown) [Example 279, 6-[5-[2-[(1-methyl-6,7-dihydro-5H-cyclopenta[c]pyridin-6-yl)methylamino]ethyl]-2-oxo-1,3-oxazolidin-3-yl]-4H-pyrazino [2,3-b][1,4]oxazin-3-one; formic acid]
< 0.0977 µM | COc1ncc(F)c2c1CC(CNCCC1CN(c3cnc4c(n3)NC(=O)CO4)C(=O)O1)C2 (stereo not shown) [Example 71, 6-[5-[2-[(4-fluoro-1-methoxy-6,7-dihydro-5H-cyclopenta[c]pyridin-6-yl)methylamino]ethyl]-2-oxo-oxazolidin-3-yl]-4H-pyrazino[2,3-b][1,4]oxazin-3-one]

Same assay, conditions: strain Escherichia coli ATCC 25922; 10-point broth dilution, optical density at 600 nm over 16 h; read-out: Escherichia coli growth inhibition IC50

Compound | IC50
N#Cc1cccc2c1CC(CNC1CCC3C(C1)OC(=O)N3c1ccc3c(n1)NC(=O)CO3)C2 (racemic) [Example 31, 2-[[[rac-3a,7a-trans-6,7a-cis-2-oxo-3-(3-oxo-4H-pyrido[3,2-b][1,4]oxazin-6-yl)-3a,4,5,6,7,7a-hexahydro-1,3-benzoxazol-6-yl]amino]methyl]-2,3-dihydro-1H-indene-4-carbonitrile] | 0.156 µM
Cc1ncc(F)c2c1CC(CN1CCC3(CN(c4ccc5c(n4)NC(=O)CO5)C(=O)O3)C(CN)C1)C2 (racemic) [Example 250, 6-[rac-5,6-trans-6-(Aminomethyl)-8-[(4-fluoro-1-methyl-6,7-dihydro-5H-cyclopenta[c]pyridin-6-yl)methyl]-2-oxo-1-oxa-3,8-diazaspiro[4.5]decan-3-yl]-4H-pyrido[3,2-b][1,4]oxazin-3-one] | 0.289 µM
